The values that follow come from PMC9143450, “Oxonitrogenated Derivatives of Eremophilans and Eudesmans: Antiproliferative and Anti-Trypanosoma cruzi Activity” (Molecules, 2022).

The structures appear in SMILES notation.

The subject of one series is A549. Kind of series: Antiproliferative SRB assay (NCI protocol), A549. Conditions: for GI50: Homo sapiens, A549 (lung), 48 h drug exposure, SRB, ± SD; for Selectivity index (SI) on tumor cells: CC50 splenocytes / GI50 A549. The class given is cell-based, human. The procedure:
(§1) In vitro antiproliferative activity was evaluated using the protocol of the National Cancer Institute (NCI) after 48 h of drug exposure using the sulforhodamine B (SRB) assay.
(§2) The following human solid tumor cell lines were used in this study: HBL-100 (breast), HeLa (cervix), SW1573 (non-small cell lung), T-47D (breast), A549 (lung), and WiDr (colon). These cell lines were a kind gift from Prof. G. J. Peters (VU Medical Center, Amsterdam, The Netherlands). Cells were maintained in 25 cm^2 culture flasks in RPMI 1640 supplemented with 5% heat-inactivated fetal calf serum and 2 mM L-glutamine in a 37 °C, 5% CO2, 95% humidified air incubator. Exponentially growing cells were trypsinized and resuspended in antibiotic containing medium (100 units penicillin G and 0.1 mg of streptomycin per mL). Single cell suspensions displaying > 97% viability by trypan blue dye exclusion test were subsequently counted. After counting, dilutions were made to give the appropriate cell densities for inoculation onto 96-well microtiter plates. Cells were inoculated in a volume of 100 μL per well at densities of 5000 (WiDr and T-47D), and 2500 (A549, HeLa, SW1573 and HBL-100) cells per well, based on their doubling times.
(§3) Chemosensitivity tests were performed using the SRB assay of the NCI with slight modifications. Briefly, pure compounds were initially dissolved in DMSO at 400 times the desired final maximum test concentration. Control cells were exposed to an equivalent concentration of DMSO (0.25% v/v, negative control). Each agent was tested in triplicates at different dilutions in the range 1–100 μM. Drug treatment started on day 1 after plating. Drug incubation periods were 48 h, after which cells were precipitated with 25 μL of ice-cold 50% (w/v) trichloroacetic acid and fixed for 60 min at 4 °C. Then, the SRB assay was performed. The optical density (OD) of each well was measured at 530 nm, using BioTek’s PowerWave XS Absorbance Microplate Reader. Values were corrected for background OD from wells containing only culture medium. The percentage growth (PG) was calculated with respect to untreated control cells (C) at each level of drug concentrations based on the difference in OD at the start time (T0) and at the end of drug exposure (T), according to NCI formulas. Therefore, if T is greater than or equal to T0, the calculation is 100 × ((T − T0)/(C − T0)). If T is lower than T0, denoting cell death, the calculation is 100 × ((T − T0)/(T0)). The effect is defined as the growth percentage, where 50% growth inhibition (GI50) represents the concentration at which PG is +50. Based on these calculations, a PG value of 0 corresponds to the number of cells present at the beginning of drug exposure, while negative PG values denote net cell death.
Background: In SRB staining, fixed cells bind dye roughly in proportion to their protein.

In a further series the test system is HBL-100. Kind of series: Antiproliferative SRB assay (NCI protocol), HBL-100. The class given is cell-based, human. Conditions: for Selectivity index (SI) on tumor cells: CC50 splenocytes / GI50 HBL-100; for GI50: Homo sapiens, HBL-100 (breast), 48 h drug exposure, SRB, ± SD. The procedure: as §1, §2, §3
The test system of the next series is HeLa. Kind of series: Antiproliferative SRB assay (NCI protocol), HeLa. The class given is cell-based, human. The note with it: for GI50: Homo sapiens, HeLa (cervix), 48 h drug exposure, SRB, ± SD; for Selectivity index (SI) on tumor cells: CC50 splenocytes / GI50 HeLa. The procedure: as §1, §2, §3
In the next series the test system is SW1573. Kind of series: Antiproliferative SRB assay (NCI protocol), SW1573. The class given is cell-based, human. Conditions: for Selectivity index (SI) on tumor cells: CC50 splenocytes / GI50 SW1573; for GI50: Homo sapiens, SW1573 (non-small cell lung), 48 h drug exposure, SRB, ± SD. How it is done:
as §1, §2, §3

The test system of the next series is T-47D. Briefly: Antiproliferative SRB assay (NCI protocol), T-47D. The class given is cell-based, human. The note with it: for Selectivity index (SI) on tumor cells: CC50 splenocytes / GI50 T-47D; for GI50: Homo sapiens, T47D, T-47D (breast), 48 h drug exposure, SRB, ± SD. The procedure: as §1, §2, §3
The subject of the next series is WiDr. Briefly: Antiproliferative SRB assay (NCI protocol), WiDr. In kind it is cell-based, human. Conditions: for Selectivity index (SI) on tumor cells: CC50 splenocytes / GI50 WiDr; for GI50: Homo sapiens, WiDr (colon), 48 h drug exposure, SRB, ± SD. How it is done:
as §1, §2, §3

Series [1] is described as follows: Cytotoxicity on primary cell culture (flow cytometry, PI). In kind it is cell-based. Conditions: Balb/c, mouse, primary splenocytes (spleen cells), ± SD, read-out: Cytotoxic activity on spleen cells (CC50). How it is done: The cytotoxicity of the natural sesquiterpenes (1–3) and derivatives (4–19) was determined on primary cell cultures (splenocytes obtained from Balb/c mouse). […] Derivatives of tessaric acid have shown an improvement in CC50 values in comparison with the natural sesquiterpene 1. […] All the derivatives synthesized from alcohol ilicic (compounds 10–19) were more toxic to mammalian cells than the natural compound (3).
The cytotoxicity of the compounds was evaluated on splenocytes obtained from Balb/c mouse (1.5 × 10^5) and incubated with different drug dilutions (5–200 μg/mL) as previously described. Cell death was determined by flow cytometry using a BD FACSaria II cytometer. Cells incubated only with drug vehicle were used as 100% viability control, and death percentage was calculated according to the following formula: Death%=1−(%PI^−cells)drug−treated/(%PI^−cells)100% viability control × 100
The concentration capable of causing 50% cell death (CC50) was determined using a non-linear regression approach.

The subject of series [2] is Trypanosoma cruzi epimastigotes (RA strain). Kind of series: In vitro anti-Trypanosoma cruzi assay ((3H) thymidine uptake). In kind it is cell-based. Conditions: for Selectivity Index on T. cruzi epimastigotes: CC50 splenocytes / IC50 epimastigotes; for IC50: Trypanosoma cruzi, epimastigotes (RA strain), ± SD. How it is done:
Trypanosoma cruzi epimastigotes (RA strain, from discrete typing unit (DTU) VI) were grown in a biphasic medium. Cultures were maintained by weekly passages at 28 °C [18].
The growth inhibition of T. cruzi epimastigotes was evaluated by a (^3H) thymidine uptake assay as previously described. Natural sesquiterpenes and derivatives were evaluated at concentrations ranging from 1.5 to 50 µg/mL. Benznidazole (Active Pharmaceutical Ingredient) was used as positive control (Elea). The percentage of inhibition was calculated as 100 = {((cpm of treated parasites)/(cpm of untreated parasites)) × 100}.
Figure 5 Effect of the natural sesquiterpene tessaric acid (1), ilicic acid (2), and ilicic alcohol (3) and their derivatives on T. cruzi. Epimastigotes (RA strain) were cultured in the presence of the compounds (50–1.5 µg/mL). Determinations were performed by triplicate. The results are expressed as the mean ± SD. (A) Effect of tessaric acid and derivatives on epimastigotes; (B) Effect of ilicic acid and derivatives on epimastigotes; (C) Effect of ilicic alcohol and derivatives on epimastigotes.

Series [3] deals with HeLa, T-47D, WiDr, A549, HBL-100, and SW1573 cell lines. Kind of series: Antiproliferative SRB assay, whole panel of human solid tumor cell lines. The class given is cell-based. The note with it: Homo sapiens; minimal to maximal GI50 across the cell lines tested, 48 h, SRB; read-out: GI50 values, range over all cell lines tested. The procedure: as §1, §2, §3

By GI50 is commonly meant the concentration giving 50% growth inhibition. Usually CC50 stands for the concentration that lowers cell viability or growth by half. Broadly, the IC50 is the point on the concentration scale where inhibition reaches its midpoint. Read a high IC50 as a need for much substance.

On to `C=C(C(=O)N(Cc1ccccc1)C(C)(C)C(=O)NC1CCCCC1)C1CCC2(C)CCCC(C)(O)C2C1` (centres unmarked) [Compound 15], for which the GI50 in the series with A549 was 13 µM; with HBL-100 it was 19 µM; in the series with HeLa, 14 µM; with SW1573 it was 17 µM; with T-47D, 19 µM; in the series on WiDr it was 18 µM. In addition, the GI50 in [3] was in the range of 5.3 to 14 µM. Also, the “Selectivity index (SI) on tumor cells” value in the series with HBL-100 is listed as 1.5; in the series on SW1573, 1.5; with T-47D it was 1.7; in the series on WiDr, 1.7. In series [1], the CC50 was 21.5 µM. In series [2], the “Selectivity Index on T. cruzi epimastigotes” value is 1.0. For the same molecule, in [2], half-maximal inhibition (IC50) required 22.4 µM.
For the molecule `C=C(C(=O)N(c1ccccc1)C(C)(C)C(=O)NCc1ccccc1)[C@@H]1CCC2=CC(=O)C[C@H](C)[C@@]2(C)C1` [Compound 6], the “Selectivity index (SI) on tumor cells” value was determined as 3.1 in the series on A549; 1.7 in the series with HBL-100; 2.9 with HeLa; 2.6 in the series on SW1573; 3.5 in the series with T-47D; 2.4 with WiDr. Besides, the GI50 was determined as 33 µM in the series with A549; 61 µM in the series with HBL-100; 36 µM in the series on HeLa; 40 µM in the series on SW1573; 30 µM in the series on T-47D; 44 µM with WiDr. For the same molecule, the GI50 in series [3] lay within 17 to 64 µM. In addition, the CC50 in series [1] stood at 104 µM. The IC50 in series [2] was > 100 µM.
`C=C(C(=O)N(c1ccccc1)C(C)(C)C(=O)NCc1ccccc1)C1CCC2(C)CCCC(C)(O)C2C1` (centres unmarked) [Compound 12]: the “Selectivity index (SI) on tumor cells” value was found to be 2.9 in the series on A549; 3.2 in the series on HBL-100; 3.8 in the series on HeLa; 2.4 with SW1573; 3.2 in the series on T-47D; 2.7 in the series with WiDr. Further, the GI50 with A549 was found to be 22 µM; in the series with HBL-100 it was 20 µM; in the series with HeLa it was 17 µM; in the series with SW1573, 27 µM; in the series on T-47D, 20 µM; with WiDr it was 24 µM. The GI50 in [3] lay in the range of 17 to 64 µM. Also, the CC50 in [1] was found to be 64.3 µM. The “Selectivity Index on T. cruzi epimastigotes” value in series [2] is 8.0. This molecule also showed an IC50 in [2] of 8 µM.
Take `C=C(C(=O)N(Cc1ccccc1)C(C)(C)C(=O)NC(C)(C)C)C1CCC2(C)CCCC(C)(O)C2C1` (centres unmarked) [Compound 11]: the “Selectivity index (SI) on tumor cells” value worked out at 16.7 with A549; 10.1 in the series on HBL-100; 17.6 in the series on HeLa; 10.1 in the series with SW1573; 14.5 in the series with T-47D; 11.5 in the series with WiDr. The GI50 stood at 20 µM in the series with A549; 33 µM in the series with HBL-100; 19 µM with HeLa; 33 µM in the series with SW1573; 23 µM in the series with T-47D; 29 µM with WiDr. In addition, the GI50 in series [3] is 17 to 64 µM. Moreover, in series [1], the CC50 turned out to be 334 µM. In series [2], the “Selectivity Index on T. cruzi epimastigotes” value turned out to be 12.6. Also, half-maximal inhibition in series [2] (IC50) required 26.1 µM.
As to `C=C(C(=O)N(Cc1ccccc1)C(C)(C)C(=O)NCc1ccccc1)C1CCC2(C)CCCC(C)(O)C2C1` (centres unmarked) [Compound 13], the “Selectivity index (SI) on tumor cells” value with A549 came out at 5.2; in the series on HBL-100, 2.1; in the series on HeLa it was 3.4; in the series with SW1573 it was 2.5; with T-47D, 2.5; with WiDr, 2.5. For the same molecule, the GI50 is 5.3 µM with A549; 13 µM in the series with HBL-100; 8 µM with HeLa; 11 µM in the series with SW1573; 11 µM with T-47D; 11 µM in the series with WiDr. The GI50 in series [3] was 5.3 to 14 µM. Further, in [1], the CC50 worked out at 27.4 µM. Besides, in series [2], the “Selectivity Index on T. cruzi epimastigotes” value is recorded as 0.5. Besides, in [2], the concentration for half-maximal inhibition (IC50) came to 59.6 µM.
